The subject of data set [1] is MMTV-PyMT tumors. The experiment in a line: Depletion experiments (anti-CD11b, anti-CSF1, anti-CD8, anti-CD4, anti-IFNγ). It counts as in vivo, mouse. Here is the method: For CSF1 depletion, mice were injected IP with 1 mg of anti-CSF1 (BioXCell BE0204; clone 5A1) 1 day before treatment with vehicle or compound, and then with 0.5 mg every 5 days^3. For CD11b depletion mice were injected IP with 100 μg of anti-CD11b (clone M1/70; BioLegend 101231) one day before treatment with vehicle or compound, and then every other day.^34 For CD8 immune cell depletion, mice were injected IP with 1 mg anti-CD8 immunoglobulin (BioXCell BE0117; clone YTS169.4) or control IgG2b (BioXCell BE0090; clone LTF-2) on day 1 and then with 0.5 mg every 5 days for 2 week study. For 6-day experiment mice were dosed with: IgG1 (BioXcell BE0088; clone HRPN), α-CD8 (BioXcell BE0117; clone YTS169.4), α-CD4 (BioXcell BE0033-1; clone GK1.5) and α-INFγ (BioXcell BE0055; clone XMG1.2) with 1 mg on day 0 and 0.5 mg on day 4; except α-CD4 which was dosed at 400 μg on day 0 and 400 μg on day 4.

Data set [2] deals with CD11b+ bone marrow derived CFSE-labeled monocytes. The experiment in a line: Monocyte tracking experiment. It counts as in vivo, mouse. The conditions noted are these: TMP195 treatment of recipient mice vs DMSO. Here is the method: Monocyte tracking was adapted and modified from Qian et al.^35 Bone marrow cells were isolated from approximately 80 day old wild-type FVB/N virgin females. CD11b+ cells were isolated with CD11b MicroBeads (Miltenyi Biotec 130-049-601) using LS magnetic separation columns (Miltenyi Biotec 130-042-401) per manufacturer's instruction. CD11b^+ cells were incubated with 10 μM of CFSE (ThermoFisher C34554) for 15 minutes at 37° C. […] Mice were treated for an additional 5 days and tumors were harvested. The percent of CD11b^+ CFSE^+ double positive cells was assessed by flow cytometry.

For data set [3], the system named is metastatic lesions in the lung. The experiment in a line: Pulmonary metastasis analysis. It counts as in vivo, mouse. Here is the method:
Lungs were removed from animals as described above. […] The number of metastatic foci are determined on sections taken every […] throughout the whole lung^3,33 and quantitation was performed blinded by an animal pathologist.

In data set [4] the test system is tumor macrophages. The experiment in a line: New vs. pre-existing macrophage dextran experiment. It counts as in vivo, mouse. The conditions noted are these: 5 days of TMP195 vs vehicle. Here is the method: MMTV-PyMT tumor-bearing mice were injected with 0.25 mg/mouse (10 mpk) low molecular weight (10,000 MW) Alexa555-labelled dextran (Life Technologies D34679) which is readily taken up by phagocytic cells. Mice were then treated for 5 consecutive days with DMSO or TMP195. Two hours before the mice were sacrificed they were injected with 0.25 mg/mouse of another low molecular weight (10,000 MW) dextran, this time labeled with Alexa594 (Life Technologies D22913)14. Tumors were collected as described above and flow cytometry was performed. […] Mice that received only one of the dextran conjugates were used as controls for flow cytometry.

Data set [5] concerns tumor vasculature. Briefly: Tumor vasculature (CD34 IHC, heavy dextran leaky vasculature experiment). In kind it is in vivo, mouse. Here is the method:
Tumor bearing mice that had been treated for 5 days with vehicle or TMP195 were injected with a heavy molecular weight (250 kDa; Sigma-Aldrich FD250S) dextran labeled with FITC36. After 10 minutes, mice were sacrificed. […] Tumors were removed and placed in a 4% PBS/Paraformaldehyde solution overnight, then embedded in a 20% sucrose solution overnight. Tumors were embedded in an optimum cutting temperature (OCT) solution and stored at −80° C. prior to sectioning and staining. The extent of the heavy dextran that permeated through the vasculature was visualized by immunofluorescence.

The test system of data set [6] is MMTV-PyMT tumors.
Procedure: For all transgenic mouse experiments virgin female FVB/N transgenic mice carrying the polyoma middle T (PyMT) transgene under the control of the mammary tumor virus (MMTV) promoter were used. All mice were maintained within the Dana-Farber Cancer Center (DCFI) animal facility and all experiments involving animals were conducted in accordance with the GSK Policy on the Care, Welfare and Treatment of Laboratory Animals and were reviewed and approved by the DFCI Institutional Animal Care and Use Committee approved. MMTV-PyMT transgenic mice were obtained from The Jackson Laboratory (002374). Mice that were approximately 80 days old were enrolled into the study when their tumor burden was between 300-600 mm^3, unless otherwise noted. Although female mice have 10 mammary fat pads, tumors from mammary fat pad positions 5 and 10 were excluded from all experiments and analysis. Caliper measurements were used to calculate the tumor volume from each mammary tumor using [(Length×Width^2)/2]. The sum of the volume from each tumor on a mouse was combined to generate “total tumor burden”. At the indicated time points animals were euthanized in a CO2 chamber before performing a cardiac perfusion with normal saline. Lungs and tumors were then removed for analysis.
Tumors were extracted and fixed in 10% formalin overnight. Tumors were embedded in paraffin and sectioned at the Rodent Pathology Core at Harvard Medical School. Preceding immunohistochemical staining, tumor sections were exposed to two washes with Histo-Clear II (National Diagnostics, cat. #HS-202), two washes with 100% ethanol, and subsequent hydration with washes of 90%, 80%, 70%, and 50% ethanol. Antigen unmasking was achieved by heating sections in 10 mM sodium citrate buffer (pH 6.0). After cooling, sections were washed in dH20, incubated in 3% Hydrogen peroxide for 10 minutes at room temperature, washed in dH20 again, and then washed in 1×PBS. Antigen blocking was carried out by incubating sections in PBS buffer containing 0.5% Tween, 1% BSA plus 5% serum for 1 hour at room temperature. Sections were then stained in block buffer containing primary antibody (anti-mouse F4/80, clone BM8, BioLegend cat. #123101, 1:50; anti-mouse CD11b, clone EPR1344, ABCAM® cat. #ab133357, 1:50; anti-mouse cleaved caspase-3 (Asp175), Cell Signaling Technology cat. #9661S, 1:300; anti-mouse CD34, clone MEC14.7, BioLegend cat. #119301, 1:100; anti-mouse Ki-67, clone D3B5, BioLegend cat. #12202S, 1:400; CD40 Abcam (ab13545) 1:200); 1:200 Mac-2 (BioLegend cat. #125403, clone M3/38) overnight in a wet chamber at 4° C. in the dark. The following day, sections were washed three times in 1×PBS and stained with secondary biotinylated antibody in PBS block buffer for 1 hour at room temperature. Sections were washed three times with 1×PBS and Elite Vectastain ABC Kit (Vector Laboratories, PK-6100) was applied for 30 minutes per manufacturer's instructions at room temperature in the dark. Sections were washed with 1×PBS, developed with DAB reagent (Peroxidase Substrate Kit, Vector Laboratories, cat. #5K4100), and counterstained with hematoxylin. Sections were then exposed to two washes with dH20, one wash with 1×PBS, and subsequent washes of increasing ethanol concentration for dehydration followed by incubation in Histo-Clear II. Slides were mounted with VectaMount Permanent Mounting Medium (Vector Laboratories, H-5000) and No. 1 glass coverslips (Denville Scientific, cat. #M1100-02) and allowed to cure for 24 hours. Sections were viewed with an Olympus BX43 Trinocular Microscope. For all IHC quantitation ten randomly selected fields from at least 4 different tumors in each treatment group were used to quantitate the percent of tissue positive for each marker using ImageJ software^32. Images were converted to a greyscale red-green-blue (RGB) stack. Positive stain in the “blue” greyscale image was quantified at the appropriate threshold as % total image area positive for stain.
Data set [7] concerns MMTV-PyMT tumors. Briefly: Tumor cell proliferation and apoptosis (Ki67, cleaved Caspase 3 IHC, immunoblot). It counts as in vivo, mouse. The following applies: 5 days of TMP195. Here is the method: Tumors were manually dissociated using a blade before being lysed in complete RIPA lysis buffer for 2 hours at 4° C. Complete RIPA is a combination of RIPA lysis buffer, a protease inhibitor, and Phenylmethylsulfonyl fluoride (PMSF). After incubation in RIPA, the lysates were centrifuged at 10,000 rcf for 10 minutes and the supernatant was collected for analysis. Protein concentration was measured using a Bicinchoninic acid (BCA) assay as per manufacturer's instructions. Equal protein concentrations were mixed into NuPAGE LDS sample buffer, beta mercaptoethanol (BME), and complete RIPA buffer before being heated for 10 mins at 90° C. to denature the protein. The gels were run on 15 wells 4-12% Bis-Tris Protein gels for 2 hours at 110 volts before being transferred onto a PVDF membrane. The blots were blocked in a 5% milk and PBST solution, and placed in primary antibody overnight. Blots were then incubated in secondary antibody for 1 hour before being developed with supersignal west PICO chemiluminescence substrate and FEMTO supersignal maximal sensitivity substrate. A Luminescent Image Analyzer LAS-4000 was used to develop blots. Primary antibodies purchased from Cell Signaling Technology were used: cleaved caspase 3 (D175), PARP (9542S) and Actin. Antibodies were diluted to a 1:1000 solution in 1% BSA, and sodium azide diluted to 1:500. […]

Data set [8] has as its system whole MMTV-PyMT tumors. The experiment in a line: Gene expression in RNA isolated from whole tumors after two weeks of treatment. It counts as in vivo, mouse. The following applies: two weeks TMP195 vs vehicle, n=3 mice per group.
Procedure: All procedures were performed at Boston University Microarray Resource Facility as described in the […] ® Whole Transcript (WT) Plus Reagent Kit Manual (Affymetrix, Santa Clara, Calif.). Briefly, the total RNA was isolated using an RNEASY® kit (Qiagen), and the sample integrity was verified using RNA 6000 Pico Assay RNA chips run in Agilent 2100 Bioanalyzer (Agilent Technologies). […] The obtained cDNA was used as a template for in vitro transcription using GeneChip® WT Expression Kit (Life Technologies). […] During this step, dUTP was incorporated. […] IVT and cDNA fragmentation quality controls were carried out by running an mRNA Pico assay in the Agilent 2100 Bioanalyzer. The labeled fragmented DNA was hybridized to the Gene Arrays 1.0ST for 16-18 h in […] ® Hybridization oven 640 at 45° C. with rotation (60 r.p.m.). The hybridized samples were washed and stained using Affymetrix fluidics station 450 as per manufacturer's instruction (Hybridization, Washing and Staining kit, Affymetrix). Microarrays were immediately scanned using Affymetrix GeneArray Scanner 3000 7G Plus (Affymetrix).
Where [9] appears, read: 50 mg/kg TMP195 IP daily, 5 days vs DMSO.

“Also recorded” adds a separate entry of the source.

With `CC(C)(CNC(=O)c1cccc(-c2noc(C(F)(F)F)n2)c1)c1coc(-c2ccccc2)n1` [TMP195, N-(2-methyl-2-(2-phenyloxazol-4-yl)propyl)-3-(5-(trifluoromethyl)-1,2,4-oxadiazol-3-yl)benzamide], in data set [1] (TMP195 50 mg/kg IP daily plus anti-CD11b), the “anti-tumor efficacy with myeloid cell depletion (anti-CD11b)” value was “abrogated the efficacy”. Besides, in data set [1] (TMP195 50 mg/kg IP daily plus anti-CSF-1), the “anti-tumor efficacy with macrophage depletion (anti-CSF-1)” value was “abrogated the efficacy”. For the same molecule, the “CD34 staining in tumor sections with IFNγ neutralization” value in data set [1] (TMP195 plus anti-IFNγ antibody) is “failed to normalize CD34 staining”. Moreover, the “autochthonous tumor burden with CD4+ cell depletion” value in data set [1] (TMP195 plus α-CD4, 6 days) is on record as “reduced”. The “single agent efficacy with CD8+ cell depletion” value in data set [1] (TMP195 plus α-CD8) is on record as “prevented the single agent efficacy”. Moreover, the “Granzyme B+ CD8+ T cells in tumors with IFNγ neutralization” value in data set [1] (TMP195 plus α-IFNγ) is on record as “disappearance”. The “reduction of tumor burden with IFNγ neutralization” value in data set [1] (TMP195 plus α-IFNγ, 6 days) is “loss of efficacy”. Moreover, the “proportion of IV injected CD11bhiCFSE+ monocytes recruited to tumors” value in data set [2] is given as “significant increase; also recorded: significantly enhanced”. For the same molecule, in data set [3] (initial tumor burden <400 mm^3, 24 days of treatment), the “metastatic lesions in the lung” value was “significant decrease”. For the same molecule, the metastatic pulmonary lesions entry in data set [3] (tumor burden 200-600 mm^3 at start, 14 days of treatment) is reported as “decrease”. Further, in data set [4], the “number of new macrophages in the tumor” value is “increases”; the “number of pre-existing macrophages in the tumor” value is “not and without affecting”. The “tumor vasculature organization (CD34+ vessel structure)” value in data set [5] (5 days of TMP195 vs DMSO) is given as “more organized”. Besides, in data set [5] (5 days of TMP195 vs vehicle), the “integrity of the tumor vasculature (retention of IV heavy dextran)” value was “significantly improved”. Besides, in data set [6] (setting [9]), the “proportion of myeloid (CD11b+) and mature macrophages (Mac-2+, CD115+, F480+) in tumors” value is recorded as “increased proportion”; the “proportion of other tumor infiltrating immune cells examined” value is listed as “without affecting”. In addition, in data set [6] (5 days of TMP195 treatment), the “MHCII+CD11bhi (MTM) cell population in tumors” value is given as “increase” and the “proportion of pro-tumor TAMs (MHCII+CD11blo)” value is on record as “decrease; also recorded: significant reduction”. Moreover, the “cytotoxic T lymphocytes in tumors (Granzyme B+ of CD45+CD3+CD8+ cells)” value in data set [6] (5 days of TMP195 vs vehicle) is reported as “significantly increases; also recorded: increase”. Moreover, the “proportion of CD8+ T cells in the tumor” value in data set [6] (TMP195 treatment) is recorded as “does not change”. In data set [7], the “cell death in the tumor (cleaved Caspase 3, PARP cleavage)” value is “increase in cell death” and the “proliferating tumor cells (Ki67)” value was “significant decrease”. The “differential gene expression in whole tumor RNA” value in data set [8] is “overall lack of differential gene expression”.

The values above are taken from patent US20200268720A1, “METHODS OF USE OF A CLASS IIA HDAC INHIBITOR” (GlaxoSmithKline LLC, priority 2016, published 2020).
